As a reminder, the EC50 is the midpoint of the concentration-response curve. The CC50 is the concentration at which the toxic effect on the cells reaches its halfway point. The low end stands for harm at low concentration, the high end for better tolerance by the cells. What is called half-life is the time in which the quantity being followed falls by half. Read a low half-life as fast loss. A word on the AUC(0-t): it is the area under the concentration-time curve up to a stated or last time point. What is called Cmax is the peak of the concentration-time curve. One may read the IC50 as the concentration that gives 50% inhibition. Lower therefore signals higher potency. Usually bioavailability stands for dose-corrected exposure relative to a reference, in per cent. For orientation: clearance means the rate of elimination divided by the concentration. Low readings indicate a low capacity for elimination, high ones a high capacity for elimination.

The test system of series [1] is Hepatitis C virus. The series can be described thus: Antiviral activity against HCV genotype 1a infected in W11.8 cells assessed as decrease in NS5A expression in replicon cell after 4 days by luminescence based ELISA. The series is classed as functional, Hepacivirus hominis. The conditions noted are these: subtype 1a, W11.8, 96 h. (In antiviral work, replicon cells carry a viral genome segment that copies itself.)

Series [2] can be described thus: Cytotoxicity against human HuhET cells by [3H]thymidine incorporation assay. The series is classed as cell-based. In general terms: Uptake of a labelled nucleoside into DNA is a usual measure of proliferation.
Series [3] concerns Hepatitis C virus. The series can be described thus: Antiviral activity against HCV genotype 1b infected in human Huh-5.2 cells assessed as decrease in HCV replicon RNA replication after 4 days by luciferase assay. The series is classed as functional, cell-based, Hepacivirus hominis. The conditions noted are these: Huh-5-2, 96 h.
A short description of series [4]: Half life in Sprague-Dawley rat at 3 mg/kg, po. The series is classed as ADME, organism-based. The arrangement: dose 3 mg/kg, route oral. The conditions noted are these: in vivo.
A short description of series [5]: AUC (0 to 8 hrs) in Sprague-Dawley rat at 3 mg/kg, po. The series is classed as ADME, organism-based. On the set-up: time < 8 hr, dose 3 mg/kg, route oral. The conditions noted are these: plasma.
A short description of series [6]: (§1) Cmax in Sprague-Dawley rat at 3 mg/kg, po. The series is classed as ADME, organism-based. The arrangement: dose 3 mg/kg, route oral. The conditions noted are these: Sprague-Dawley, in vivo.
For the next series, the target named is Cytochrome P450 2C9 (Homo sapiens, UniProt P11712). The series can be described thus: Inhibition of CYP2C9 (unknown origin). The series is classed as ADME.
Series [7] is described as follows: Half life in Sprague-Dawley rat at 3 mg/kg, iv. The series is classed as ADME, organism-based. On the set-up: dose 3 mg/kg, route intravenous. The conditions noted are these: in vivo.
A short description of series [8]: Volume of distribution at steady state in Sprague-Dawley rat at 3 mg/kg, iv. The arrangement: dose 3 mg/kg, route intravenous. It counts as ADME, organism-based. The conditions noted are these: in vivo, read-out: Vdss.
The next series concerns the target Cytochrome P450 2D6 (Homo sapiens, UniProt P10635). The series can be described thus: Inhibition of CYP2D6 (unknown origin). The series is classed as ADME.
Series [9] is described as follows: Metabolic stability in human liver microsomes assessed as remaining parent compound level at 5 uM after 30 mins in presence of NADPH and UDPGA. It counts as ADME. The conditions noted are these: read-out: Stability.
Series [10] in a line: Oral bioavailability in Sprague-Dawley rat at 3 mg/kg. The series is classed as ADME, organism-based. The conditions noted are these: in vivo.
The target of another series is Cytochrome P450 3A4 (Homo sapiens, UniProt P08684). The series is described as follows: Inhibition of CYP3A4 (unknown origin). The series is classed as ADME.
Series [11] concerns the target Voltage-gated inwardly rectifying potassium channel KCNH2 (Homo sapiens, UniProt Q12809). The series is described as follows: Inhibition of human ERG by Q-patch assay.
The nature of series [12]: Clearance in Sprague-Dawley rat at 3 mg/kg, iv. It counts as ADME, organism-based. On the set-up: dose 3 mg/kg, route intravenous. The conditions noted are these: in vivo.
Series [13] in a line: Metabolic stability in rat liver microsomes assessed as remaining parent compound level at 5 uM after 30 mins in presence of NADPH and UDPGA. The series is classed as ADME. The conditions noted are these: read-out: Stability. Background: Liver microsomes are vesicles of endoplasmic reticulum, rich in cytochrome P450 enzymes.
For another series, the system named is Rattus norvegicus. The description is as §1. The series is classed as ADME, organism-based. The conditions noted are these: in vivo. The arrangement: dose 3 mg/kg, route oral.

Cytochrome P450 2D6, sequence (P10635 whole entry): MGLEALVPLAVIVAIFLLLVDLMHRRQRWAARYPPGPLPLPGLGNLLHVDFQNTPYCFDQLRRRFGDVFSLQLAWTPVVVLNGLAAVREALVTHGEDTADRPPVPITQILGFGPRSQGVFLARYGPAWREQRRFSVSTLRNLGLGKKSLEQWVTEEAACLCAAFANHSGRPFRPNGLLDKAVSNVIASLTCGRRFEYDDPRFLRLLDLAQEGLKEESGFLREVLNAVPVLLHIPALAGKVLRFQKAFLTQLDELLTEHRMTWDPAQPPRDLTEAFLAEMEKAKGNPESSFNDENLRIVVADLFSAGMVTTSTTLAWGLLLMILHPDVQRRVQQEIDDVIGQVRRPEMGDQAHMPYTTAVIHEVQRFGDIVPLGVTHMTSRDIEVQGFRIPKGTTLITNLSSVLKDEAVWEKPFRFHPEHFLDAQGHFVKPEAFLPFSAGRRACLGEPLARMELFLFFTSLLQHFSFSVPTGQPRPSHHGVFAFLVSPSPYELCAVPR
Cytochrome P450 2C9, sequence (P11712 whole entry): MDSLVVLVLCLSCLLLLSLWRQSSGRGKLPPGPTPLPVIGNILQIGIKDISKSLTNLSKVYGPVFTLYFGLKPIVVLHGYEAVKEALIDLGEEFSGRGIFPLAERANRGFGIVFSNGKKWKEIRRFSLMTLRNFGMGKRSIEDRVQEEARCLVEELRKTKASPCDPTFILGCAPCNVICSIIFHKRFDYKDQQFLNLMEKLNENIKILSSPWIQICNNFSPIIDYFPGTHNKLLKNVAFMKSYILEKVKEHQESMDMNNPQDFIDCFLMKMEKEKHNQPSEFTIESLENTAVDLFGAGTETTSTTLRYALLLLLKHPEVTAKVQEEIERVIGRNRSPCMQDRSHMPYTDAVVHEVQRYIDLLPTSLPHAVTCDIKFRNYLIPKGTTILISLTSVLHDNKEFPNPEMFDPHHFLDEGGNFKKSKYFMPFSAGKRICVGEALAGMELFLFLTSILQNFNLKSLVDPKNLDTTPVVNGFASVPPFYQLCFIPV
Voltage-gated inwardly rectifying potassium channel KCNH2, sequence (Q12809 whole entry): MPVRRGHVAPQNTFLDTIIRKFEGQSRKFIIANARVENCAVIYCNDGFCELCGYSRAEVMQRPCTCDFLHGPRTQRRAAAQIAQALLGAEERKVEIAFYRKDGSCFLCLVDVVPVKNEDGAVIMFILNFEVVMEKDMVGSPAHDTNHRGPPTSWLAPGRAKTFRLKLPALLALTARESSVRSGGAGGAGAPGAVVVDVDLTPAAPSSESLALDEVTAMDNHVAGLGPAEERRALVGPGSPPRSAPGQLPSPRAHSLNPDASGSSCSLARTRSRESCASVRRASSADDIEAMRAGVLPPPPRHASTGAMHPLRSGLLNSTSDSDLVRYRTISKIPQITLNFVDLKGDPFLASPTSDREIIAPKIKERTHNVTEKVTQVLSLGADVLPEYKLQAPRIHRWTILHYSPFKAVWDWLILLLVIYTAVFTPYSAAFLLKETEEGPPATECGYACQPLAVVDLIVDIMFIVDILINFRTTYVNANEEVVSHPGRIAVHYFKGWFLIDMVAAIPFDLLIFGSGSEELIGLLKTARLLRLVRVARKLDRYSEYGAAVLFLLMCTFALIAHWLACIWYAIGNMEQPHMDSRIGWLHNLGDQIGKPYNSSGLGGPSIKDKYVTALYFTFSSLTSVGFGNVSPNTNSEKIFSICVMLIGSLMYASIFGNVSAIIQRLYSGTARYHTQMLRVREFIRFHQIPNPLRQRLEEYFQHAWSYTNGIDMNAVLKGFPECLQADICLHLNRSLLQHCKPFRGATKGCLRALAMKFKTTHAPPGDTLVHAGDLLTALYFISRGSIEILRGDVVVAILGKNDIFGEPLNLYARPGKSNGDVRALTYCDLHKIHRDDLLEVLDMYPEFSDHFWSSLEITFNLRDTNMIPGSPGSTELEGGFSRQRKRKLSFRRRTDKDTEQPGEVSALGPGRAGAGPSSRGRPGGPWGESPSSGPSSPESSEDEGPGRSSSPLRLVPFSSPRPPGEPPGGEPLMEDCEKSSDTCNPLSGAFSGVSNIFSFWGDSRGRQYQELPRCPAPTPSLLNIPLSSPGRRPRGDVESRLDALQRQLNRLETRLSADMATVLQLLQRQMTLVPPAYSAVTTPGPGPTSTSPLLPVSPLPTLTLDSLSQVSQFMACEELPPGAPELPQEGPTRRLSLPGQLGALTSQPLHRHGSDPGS
Cytochrome P450 3A4, sequence (P08684 whole entry): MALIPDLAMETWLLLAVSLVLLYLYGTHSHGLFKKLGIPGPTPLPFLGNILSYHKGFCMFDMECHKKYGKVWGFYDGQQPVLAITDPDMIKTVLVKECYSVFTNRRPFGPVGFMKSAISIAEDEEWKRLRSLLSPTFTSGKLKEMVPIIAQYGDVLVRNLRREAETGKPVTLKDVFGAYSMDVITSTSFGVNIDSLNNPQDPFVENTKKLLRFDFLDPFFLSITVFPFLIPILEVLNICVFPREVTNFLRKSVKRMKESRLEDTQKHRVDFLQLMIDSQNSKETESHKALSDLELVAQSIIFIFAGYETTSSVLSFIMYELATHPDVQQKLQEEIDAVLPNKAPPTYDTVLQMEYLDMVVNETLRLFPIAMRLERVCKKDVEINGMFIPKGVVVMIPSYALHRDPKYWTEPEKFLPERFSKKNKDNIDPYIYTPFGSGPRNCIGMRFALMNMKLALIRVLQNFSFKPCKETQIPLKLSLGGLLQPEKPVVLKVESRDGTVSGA

`COC(=O)N[C@H](C(=O)N1C[C@@H](C)C[C@H]1c1ncc(-c2ccc(-c3ccc(-c4cc5[nH]c([C@@H]6C[C@H](C)CN6C(=O)[C@@H](NC(=O)OC)C(C)C)nc5s4)c(F)c3)cc2)[nH]1)C(C)C`: the values for the EC50 in the series with Hepatitis C virus [1] and with Hepatitis C virus [3] were 0.023 nM and 0.002 nM, respectively. For the same compound, the CC50 in [2] was above 20000 nM.

`COC(=O)N[C@H](C(=O)N1C[C@@H](C)C[C@H]1c1nc2sc(-c3ccc(-c4ccc5oc([C@@H]6C[C@H](C)CN6C(=O)[C@@H](NC(=O)OC)C(C)C)nc5c4)cc3)cc2[nH]1)C(C)C`: the results for the half-maximal effective concentration (EC50) in the series on Hepatitis C virus [1] and in the series on Hepatitis C virus [3] were 18 nM and 0.115 nM, respectively. This compound registered a half-maximal cytotoxic concentration (CC50) in [2] above 20000 nM.

`COC(=O)N[C@H](C(=O)N1C[C@@H](C)C[C@H]1c1ncc(-c2ccc(-c3cc4sc(-c5cc6[nH]c([C@@H]7C[C@H](C)CN7C(=O)[C@@H](NC(=O)OC)C(C)C)nc6s5)cc4s3)cc2)[nH]1)C(C)C`: the results for the EC50 with Hepatitis C virus [1] and in the series with Hepatitis C virus [3] were 0.053 nM and 0.012 nM, respectively. Besides, the 50% cytotoxic concentration (CC50) in [2] is above 20000 nM.

In the case of `COC(=O)N[C@H](C(=O)N1CCC[C@H]1c1nc2cc(C#Cc3cc4[nH]c([C@@H]5CCCN5C(=O)[C@@H](NC(=O)OC)C(C)C)nc4s3)ccc2[nH]1)C(C)C`, the EC50 with Hepatitis C virus [1] was 828 nM; in the series with Hepatitis C virus [3], 0.215 nM.

In the case of `COC(=O)N[C@H](C(=O)N1C[C@@H](C)C[C@H]1c1ncc(-c2ccc(-c3ccc(-c4cc5[nH]c([C@@H]6C[C@H](C)CN6C(=O)[C@@H](NC(=O)OC)C(C)C)nc5s4)s3)cc2)[nH]1)C(C)C`, the half-life was 9.8 h in series [4] and 6.7 h in series [7]. Further, the exposure AUC(0-t) at 8 h in [5] turned out to be 440 ng·h/mL. The EC50 came out at 0.017 nM in the series with Hepatitis C virus [1] and 0.004 nM in the series with Hepatitis C virus [3]. In series [6], the concentration peaked (Cmax) at 10 ng/mL. The compound also registered a half-maximal cytotoxic concentration (CC50) in series [2] of 13300 nM. For the same compound, the half-maximal inhibitory concentration (IC50) against Cytochrome P450 2C9 was 21000 nM; against Cytochrome P450 2D6 it was above 30000 nM; against Cytochrome P450 3A4, above 30000 nM; in series [11], 25100 nM. Also, the Vd in [8] turned out to be 3.8 L/kg. Moreover, the remaining at 0.5 h, 5 µM in series [9] and in [13] was 100% each time. In series [10], this compound yielded a bioavailability of 11%. Also, the clearance in series [12] was 6.9 mL/min/kg.

In the case of `COC(=O)N[C@H](C(=O)N1C[C@@H](C)C[C@H]1c1nc2cc(-c3ccc(-c4cc5[nH]c([C@@H]6C[C@H](C)CN6C(=O)[C@@H](NC(=O)OC)C(C)C)nc5s4)cc3)ccc2[nH]1)C(C)C`, the concentration for a half-maximal effect (EC50) in the series on Hepatitis C virus [1] stood at 0.6 nM. The compound also came in with a CC50 in [2] above 20000 nM.

For `COC(=O)N[C@H](C(=O)N1C[C@@H](C)C[C@H]1c1ncc(-c2ccc(-c3ccc(-c4cc5[nH]c([C@@H]6C[C@H](C)CN6C(=O)[C@@H](NC(=O)OC)C(C)C)nc5s4)cc3F)cc2)[nH]1)C(C)C`, the results for the EC50 with Hepatitis C virus [1] and in the series with Hepatitis C virus [3] were 0.023 nM and 0.006 nM, respectively. In [2], this compound displayed a CC50 of 20000 nM.

In the case of `COC(=O)N[C@H](C(=O)N1C[C@@H](C)C[C@H]1c1cn2ccc(-c3ccc(-c4cc5[nH]c([C@@H]6C[C@H](C)CN6C(=O)[C@@H](NC(=O)OC)C(C)C)nc5s4)cc3)cc2n1)C(C)C`, the 50% effective concentration (EC50) in the series on Hepatitis C virus [1] was 0.3 nM; in the series on Hepatitis C virus [3] it was 0.041 nM. The compound also gave a CC50 in [2] of 15300 nM.

Regarding `COC(=O)N[C@H](C(=O)N1C[C@@H](C)C[C@H]1c1nc2cc(C#Cc3cc4[nH]c([C@@H]5C[C@H](C)CN5C(=O)[C@@H](NC(=O)OC)C(C)C)nc4s3)ccc2[nH]1)C(C)C`, the concentration giving a half-maximal response (EC50) with Hepatitis C virus [1] was found to be 39 nM; in the series with Hepatitis C virus [3], 0.011 nM.

For `COC(=O)N[C@H](C(=O)N1C[C@@H](C)C[C@H]1c1ncc(-c2ccc(-c3ccc(-c4cc5[nH]c([C@@H]6C[C@H](C)CN6C(=O)[C@@H](NC(=O)OC)C(C)C)nc5s4)cc3C)cc2)[nH]1)C(C)C`, the results for the EC50 with Hepatitis C virus [1] and with Hepatitis C virus [3] were 0.037 nM and 0.002 nM, respectively. The compound also had a cytotoxic concentration (CC50) in series [2] of 19200 nM.

Regarding `COC(=O)N[C@H](C(=O)N1C[C@@H](C)C[C@H]1c1ncc(-c2ccc(-c3ccc(-c4cc5[nH]c([C@@H]6C[C@H](C)CN6C(=O)[C@@H](NC(=O)OC)C(C)C)nc5s4)c(C)c3)cc2)[nH]1)C(C)C`, the concentration for a half-maximal effect (EC50) worked out at 0.037 nM in the series with Hepatitis C virus [1] and 0.004 nM with Hepatitis C virus [3]. The compound also yielded a CC50 in series [2] above 20000 nM.

In the case of `COC(=O)N[C@H](C(=O)N1C[C@@H](C)C[C@H]1c1nc2sc(-c3ccc(-c4ccc5c(c4)nc([C@@H]4C[C@H](C)CN4C(=O)[C@@H](NC(=O)OC)C(C)C)n5C)cc3)cc2[nH]1)C(C)C`, the half-maximal effective concentration (EC50) came to 13 nM in the series with Hepatitis C virus [1] and 0.019 nM in the series with Hepatitis C virus [3]. This compound also registered a 50% cytotoxic concentration (CC50) in series [2] above 20000 nM.

For the compound `COC(=O)N[C@H](C(=O)N1C[C@@H](C)C[C@H]1c1cc2cc(-c3ccc(-c4cc5[nH]c([C@@H]6C[C@H](C)CN6C(=O)[C@@H](NC(=O)OC)C(C)C)nc5s4)cc3)ccc2[nH]1)C(C)C`, the half-maximal effective concentration (EC50) in the series with Hepatitis C virus [1] stood at 100 nM; in the series on Hepatitis C virus [3], 0.045 nM. Further, the CC50 in series [2] was above 20000 nM.

With `COC(=O)N[C@H](C(=O)N1C[C@@H](C)C[C@H]1c1ncc(-c2ccc(-c3ccc(-c4cc5[nH]c([C@@H]6C[C@H](C)CN6C(=O)[C@@H](NC(=O)OC)C(C)C)nc5s4)cc3)cc2)[nH]1)C(C)C`, in the series on Rattus norvegicus, the Cmax is 30 ng/mL. This compound also yielded a half-maximal cytotoxic concentration (CC50) in series [2] above 20000 nM. Further, the IC50 was above 30000 nM against Cytochrome P450 2C9, above 30000 nM on Cytochrome P450 2D6, above 30000 nM against Cytochrome P450 3A4 and above 40000 nM in series [11]. The remaining at 0.5 h, 5 µM in series [9] was 90%; in series [13], 100%.

(Values after ChEMBL document CHEMBL3393045, “Discovery of thienoimidazole-based HCV NS5A inhibitors. Part 2: non-symmetric inhibitors with potent activity against genotype 1a and 1b” (Bioorg Med Chem Lett, 2015).)
